Measurements taken from patent US10357494B2, “Combination therapy comprising varlitinib and an anticancer agent” (ASLAN Pharmaceuticals PTE LTD, priority 2015, dated 2019).

Assays:
Format in all cases: in vivo, human
[1] = system: stage IV Cholangiocarcinoma and metastatic lymphadenopathy; assay: Treatment of stage IV cholangiocarcinoma and metastatic lymphadenopathy patient with Varlitinib and cisplatin/5FU; details: person, first line, 300 mg BID Varlitinib combined with Cis/5-FU
Method: Example 5 Treatment of Stage IV Cholangiocarcinoma and Metastatic Lymphadenopathy with Varlitinib 400 mg Bi-Daily Orally and Cisplatin/5FU Combination Chemotherapy A person with stage IV Cholangiocarcinoma and metastatic lymphadenopathy diagnosed in January 2016, no prior surgery or treatment was give first line treatment of 300 mg BID Varlitinib combined with Cis/5-FU, 28-day cycle.

[2] = system: stage IV cholangiocarcinoma; assay: Treatment of cholangiocarcinoma patients with Varlitinib bi-daily and cisplatin/capecitabine chemotherapy; details: person
Method: Example 2 Treatment of Cholangiocarcinoma with Varlitinib 400 mg Bi-Daily Orally and Cisplatin/Capecitabine Combination Chemotherapy A person with stage IV cholangiocarcinoma (3 lesions) had progressive disease following treatment with: • radiotherapy, and • gemcitabine (Gemzar®) and cisplatin—6 months. […] The cisplatin and capecitabine regime was cisplatin 80 mg/m^2 IV infusion and capecitabine 1000 mg/m^2 orally twice daily for 14 days every 3 weeks. Example 3 Treatment of Cholangiocarcinoma with Varlitinib 500 mg Bi-Daily Orally and Cisplatin/Capecitabine Combination Chemotherapy A person with stage IV cholangiocarcinoma had progressive disease following treatment with radiotherapy and bi-weekly 5-FU. […] The cisplatin and capecitabine regime was cisplatin 80 mg/m^2 IV infusion and capecitabine 1000 mg/m^2 orally twice daily for 14 days every 3 weeks.

bladder cancer = assay: Treatment of bladder cancer patient with 300 mg Valitinib and FOLFOX; details: person
Method: Example 7 Treatment of the Bladder Cancer with 300 mg Valitinib and FOLFOX A person was diagnosed with bladder cancer 2014. They received radical cystoprostatetomy and prior therapy with Cisplatin and radiotherapy (pelvis) on 20 Feb. 2014; gemcitabline and cisplatin on 10 Apr. 2015 with last dose on 8 May 2015. The patient received 9 cycles of 300 mg Valitinib BID and FOLFOX and 5 cycles of Varlitinib 300 mg monotherapy. The Valitinib in the combination therapy interruption from 21 to 27 Sep. 2015; 21 Oct. to 23 Oct.

tumour = assay: Clinical data summary as of June 2016, Varlitinib combination arms
Source text: As of June 2016 the following clinical data summary: […]

[3] = system: stage IV sigmoid colorectal cancer; assay: Treatment of stage IV sigmoid colorectal cancer patient with Varlitinib 300 mg BID and oxaliplatin/capecitabine; details: person, stage IV sigmoid colorectal cancer with metastasis, 300 mg bi-daily
Method: Example 4 Treatment of Stage IV Sigmoid Coloreactal Cancer with Varlitinib 300 mg BID Oxaliplatin/Capecitabine
A person with stage IV sigmoid colorectal cancer with metastasis to liver, lungs and lymph node.
The prior treatments included: • Anterior resection with right hemi-hepatetomy and cholecystecomy • XELOX (PD), XELIRI (PR), Irrinotecan & Cetuximab (SD) • Xeloda and Avastin (SD), Bayer PTEFb-CDK9 inhibitor (PD)
The treatment per 3 weeks cycle was 300 mg ASLAN001 orally bi-daily, oxaliplatin 130 mg/m^2 IV infusion (Day 1) and capecitabine 850 mg/m^2 (Day 1-14) until Cycle 6, then from Cycle 7+ onwards, Varlitinib 300 mg b-daily as monotherapy per 4 week cycle.

[4] = system: intrahepatic bile duct cholangiocarcinoma; assay: Treatment of intrahepatic bile duct cholangiocarcinoma patient with Varlitinib and FOLFOX; details: person, progressive on gemcitabine and cisplatin; 9 cycles Varlitinib 400 mg reduced to 300 mg BID and FOLFOX, then 7 cycles monotherapy
Method: Example 6 Treatment of the Intrahepatic Bile Duct Cholangiocarcinoma with 300 mg Valitinib and FOLFOX A person diagnosed in 2013 with intrahepatic bile duct cholangiocarcinoma, had received surgery in the form of left hemihepatectomy in 15 Jul. 2013. Prior therapies were gemcitabine and cisplatin 14 Aug. 2013 with last dose 8 Jan. 2014 and repeated between 13 May 2015 and 1 Jul. 2015. With this treatment the status was progressive disease. The patient was give 9 cycles combination Varlitinib 400 mg reduced to 300 mg BID and FOLFOX. This was followed with 7 cycles of Valitinib monotherapy.

gastric cancer = assay: Treatment of gastric cancer patients with Varlitinib 400 mg bi-daily and cisplatin/capecitabine chemotherapy; details: for tolerability / dose limiting toxicity: 400 mg bi-daily with cisplatin and capecitabine; for dose limiting toxicity: first two treatment cycles
Method: Example 1 Treatment of Gastric Cancer with Valitinib 400 mg Bi-Daily Orally and Cisplatin/Capecitabine Combination Chemotherapy
person one with Her2 positive (3+) stage IV gastric cancer had progressive disease in the form of 2 target lesions following: • first line treatment with cisplatin and Xeloda® (capecitabine)—4 cycles, • second line treatment with the experimental drug TDM1 (an antibody drug conjugate comprising Herceptin®)—9 cycles, • third line treatment with experimental drug LJM716 (a Her3 monoclonal antibody) and Herceptin®.
After treatment cycle 4 with ASLAN001 400 mg bi-daily, cisplatin and capecitabine, see FIG. 1. […] The cisplatin and capecitabine regime was cisplatin 80 mg/m^2 IV infusion and capecitabine 1000 mg/m^2 orally twice daily for 14 days every 3 weeks.
person two with gastric cancer (4 target lesions) was given first line treatment of Valitinib 400 mg bi-daily, cisplatin and capecitabine. […] The cisplatin and capecitabine regime was cisplatin 80 mg/m^2 IV infusion and capecitabine 1000 mg/m^2 orally twice daily for 14 days every 3 weeks.

[5] = system: gastric tumours co-expressing EGFR and HER2 or HER2 amplified; assay: Phase I monotherapy trial in gastric cancer patients, tumour biopsies analysed by immunohistochemistry; details: monotherapy 500 mg orally BID for 28 days, 23 patients; biopsies before and after treatment
Method: (R)—N4-[3-Chloro-4-(thiazol-2-ylmethoxy)-phenyl]-N6-(4-methyl-4,5,-dihydro-oxazol-2-yl)-quinazoline-4,6-diamine (Varlitinib Example 52 disclosed in WO2005/016346), is a small-molecule pan-HER inhibitor. It has been tested as a monotherapy in phase I clinical trials of gastric cancer patients. 23 patients, who had previously failed on one or more rounds of chemotherapy, and where eligible for trastuzumab, each received 500 mg of Varlitinib orally twice daily (BID) as monotherapy for 28 days. Tumour biopsies taken before and after treatment were analysed using immunohistochemistry.

[6] = 9 cycles 300 mg BID and FOLFOX, then 5 cycles 300 mg monotherapy

C[C@@H]1COC(Nc2ccc3ncnc(Nc4ccc(OCc5nccs5)c(Cl)c4)c3c2)=N1 [Varlitinib, (R)—N4-[3-Chloro-4-(thiazol-2-ylmethoxy)-phenyl]-N6-(4-methyl-4,5,-dihydro-oxazol-2-yl)-quinazoline-4,6-diamine]
current disease status [1]: stable disease
tumor reduction at first response (C2) ([1]; 28-day cycle, 5 Mar. 2016): 16%
tumor reduction at last response (C4) ([1]; 28-day cycle, 17 May 2016): 13%
tolerability ([2]; cholangiocarcinoma, 400 mg bi-daily with cisplatin and capecitabine): well tolerated
dose limiting toxicity ([2]; cholangiocarcinoma, first two treatment cycles, 400 mg bi-daily with cisplatin and capecitabine): No dose limiting toxicity was observed
response after treatment cycle 2 ([2]; stage IV cholangiocarcinoma, progressive after radiotherapy and 5-FU, Varlitinib orally 500 mg bi-daily, cisplatin and capecitabine): 4%
adverse event leading to treatment interruption (bladder cancer; 300 mg BID and FOLFOX combination therapy): G2 weight loss
best % tumour change (bladder cancer; [6]): −4%
patient status (bladder cancer; [6]): stable disease
Best response (% change) (tumour; Combo with cis/5-FU, 300 mg Varlitinib, 6 patients): −21%
Best response (% change) (tumour; Combo with cis/5-FU, 400 mg Varlitinib, 7 patients): −47%
Best response (% change) (tumour; Combo with cis/cap, 400 mg Varlitinib, 6 patients): −87%
Best response (% change) (tumour; Combo with cis/cap, 500 mg Varlitinib, 4 patients): −4%
response after 2 cycles (figure) [3]: 335
response category after 2 cycles [3]: partial response
patient status [4]: partial response
response after treatment cycle 4 (gastric cancer; person one, Her2 positive (3+) stage IV gastric cancer, progressive after three prior lines, Varlitinib 400 mg bi-daily, cisplatin and capecitabine): 29%
tolerability (gastric cancer; person one, gastric cancer): well tolerated
dose limiting toxicity (gastric cancer; person one, gastric cancer): No dose limiting toxicity was observed
disease status category (gastric cancer; person one, stage IV gastric cancer, after cycle 4 of Varlitinib 400 mg bi-daily, cisplatin and capecitabine): stable disease
response after cycle 4 (gastric cancer; person two, gastric cancer (4 target lesions), first line, 400 mg bi-daily, cisplatin and capecitabine): 41%
tolerability (gastric cancer; person two, gastric cancer): well tolerated
disease status designation (gastric cancer; person two, gastric cancer, due to development of a new bone lesion): progression disease
dose limiting toxicity (gastric cancer; person two, gastric cancer): No dose limiting toxicity was observed
signs of clinical activity: cell survival and proliferation [5]: reduction in cell survival and cell proliferation
signs of clinical activity: signalling pathways [5]: downregulation of signalling pathways responsible for cell proliferation
